# Columns and labels:
# [1] = system: human large intestine cancer cell line (HCT-116); assay: Human large intestine cancer (HCT-116) cell growth inhibition test; type: cell-based; details: 72 h, HCT-116, culture for 3 days, sulforhodamine B absorbance
# Procedure, shortened: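 HCT-116 cells seeded at 1.0×10^3 cells/well in McCoy's 5a with 10% FBS, then exposed to compound (0.1% DMSO final) for 3 days. Growth measured by sulforhodamine B absorbance; IC50 derived from concentration-inhibition data.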
# PAK4 = target: T1, PAK4 (Homo sapiens, UniProt O96013); assay: PAK4 enzyme inhibition test; type: biochemical; details: Ki=IC50/(1+S/Km); 33P bound to MBP, [γ-33P]ATP, 30° C. for 20 minutes; read-out: Ki value of PAK4 inhibitory activity
# T1 construct: purchased Invitrogen Corp. PV4212
# Procedure, shortened: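 Radiometric assay: PAK4 with MBP substrate and 40 μM [γ-^33P]ATP solution in Tris pH 7.5 buffer with MgCl2, DTT, EGTA, reacted 20 min at 30 °C. TCA-precipitated, washed ^33P-MBP counted by scintillation. IC50 from inhibition of ^33P incorporation; Ki = IC50/(1+S/Km).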
# CDK2 = target: T2, CDK2 (Homo sapiens, UniProt P24941); assay: CDK2 enzyme inhibition test; type: biochemical; details: Ki=IC50/(1+S/Km); 33P bound to MBP, [γ-33P]ATP, 30° C. for 20 minutes; read-out: Ki value of CDK2 inhibitory activity
# T2 construct: purchased Invitrogen Corp. PV3267
# Procedure, shortened: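 Commercial CDK2 with MBP substrate and [γ-33P]ATP (500 μM solution, before mixing) in HEPES pH 7.4 buffer with DTT, Triton X-100 and MgCl2; 20 min at 30 °C. TCA-precipitated 33P-MBP counted by liquid scintillation; IC50 from inhibition of 33P incorporation, Ki = IC50/(1+S/Km).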
# T1 sequence (O96013 whole entry): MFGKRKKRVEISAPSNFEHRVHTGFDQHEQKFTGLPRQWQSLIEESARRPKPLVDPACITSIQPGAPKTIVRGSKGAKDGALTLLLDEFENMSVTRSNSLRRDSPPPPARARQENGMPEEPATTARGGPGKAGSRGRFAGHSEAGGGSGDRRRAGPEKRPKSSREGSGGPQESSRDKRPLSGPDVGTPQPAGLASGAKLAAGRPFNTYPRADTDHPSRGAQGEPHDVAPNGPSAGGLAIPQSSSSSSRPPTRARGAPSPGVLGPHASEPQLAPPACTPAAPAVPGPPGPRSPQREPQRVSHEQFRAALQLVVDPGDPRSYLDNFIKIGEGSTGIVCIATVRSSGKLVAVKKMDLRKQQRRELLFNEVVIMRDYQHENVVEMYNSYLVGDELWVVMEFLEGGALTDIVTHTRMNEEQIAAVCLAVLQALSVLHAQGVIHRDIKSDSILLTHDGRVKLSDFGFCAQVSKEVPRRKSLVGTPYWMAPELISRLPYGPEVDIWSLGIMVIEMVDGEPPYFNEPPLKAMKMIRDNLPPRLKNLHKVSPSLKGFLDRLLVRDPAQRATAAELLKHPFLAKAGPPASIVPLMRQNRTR
Structure (SMILES),IC50 [1] [nM],Ki (PAK4) [nM],Ki (CDK2) [nM]
"CC1(C)c2[nH]nc(NC(=O)C3([Si](C)(C)C)CCC3)c2CN1C(=O)O[C@H](CO)c1ccccc1 [IV-2, (S)-2-Hydroxy-1-phenylethyl 6,6-dimethyl-3-[1-(trimethylsilyl)cyclobutanecarboxamido]-4,6-dihydropyrrolo[3,4-c]pyrazole-5(1H)-carboxylate]",≤ 500,≥ 500,≥ 1000
"CC1(C)c2[nH]nc(NC(=O)C3([Si](C)(C)C)CCC3)c2CN1C(=O)N[C@H](CO)c1ccccc1 [IV-114, (S)—N-(2-Hydroxy-1-phenylethyl)-6,6-dimethyl-3-[1-(trimethylsilyl)cyclobutanecarboxamido]-4,6-dihydropyrrolo[3,4-c]pyrazole-5(1H)-carboxamide]",≤ 500,≥ 500,≥ 1000
"CC[Si](C)(C)C1(C(=O)Nc2n[nH]c3c2CN(C(=O)N[C@H](CO)c2ccccc2)C3(C)C)CCC1 [IV-117, (S)-3-[1-(Ethyldimethylsilyl)cyclobutanecarboxamido]-N-(2-hydroxy-1-phenylethyl)-6,6-dimethyl-4,6-dihydropyrrolo[3,4-c]pyrazole-5(1H)-carboxamide]",≤ 500,≥ 500,≥ 1000
"CN(C(=O)N1Cc2c(NC(=O)C3([Si](C)(C)C)CCC3)n[nH]c2C1(C)C)[C@H](CO)c1ccccc1 [IV-119, (S)—N-(2-Hydroxy-1-phenylethyl)-N,6,6-trimethyl-3-[1-(trimethylsilyl)cyclobutanecarboxamido]-4,6-dihydropyrrolo[3,4-c]pyrazole-5(1H)-carboxamide]",≤ 500,≥ 500,≥ 1000
"COC[C@@H](NC(=O)N1Cc2c(NC(=O)C3([Si](C)(C)C)CCC3)n[nH]c2C1(C)C)c1ccccc1 [IV-123, (S)—N-(2-Methoxy-1-phenylethyl)-6,6-dimethyl-3-[1-(trimethylsilyl)cyclobutanecarboxamido]-4,6-dihydropyrrolo[3,4-c]pyrazole-5(1H)-carboxamide]",≤ 500,≥ 500,≥ 1000
"CC(C)(O)[C@@H](NC(=O)N1Cc2c(NC(=O)C3([Si](C)(C)C)CCC3)n[nH]c2C1(C)C)c1ccccc1 [IV-171, (S)—N-(2-Hydroxy-2-methyl-1-phenylpropyl)-6,6-dimethyl-3-[1-(trimethylsilyl)cyclobutanecarboxamido]-4,6-dihydropyrrolo[3,4-c]pyrazole-5(1H)-carboxamide]",≤ 500,≥ 500,≥ 1000
"CC1(C)c2[nH]nc(NC(=O)C3([Si](C)(C)C)CCC3)c2CN1C(=O)N[C@H](CCO)c1ccccc1 [IV-227, (R)—N-(3-Hydroxy-1-phenylpropyl)-6,6-dimethyl-3-[1-(trimethylsilyl)cyclobutanecarboxamido]-4,6-dihydropyrrolo[3,4-c]pyrazole-5(1H)-carboxamide]",≤ 500,≥ 500,≥ 1000
"CC1(C)c2[nH]nc(NC(=O)C3([Si](C)(C)C)CCC3)c2CN1C(=O)N[C@H](CCCO)c1ccccc1 [IV-283, (R)—N-(4-Hydroxy-1-phenylbutyl)-6,6-dimethyl-3-[1-(trimethylsilyl)cyclobutanecarboxamido]-4,6-dihydropyrrolo[3,4-c]pyrazole-5(1H)-carboxamide]",≤ 500,≥ 500,≥ 1000
"CC1(C)c2[nH]nc(NC(=O)C3([Si](C)(C)C)CCC3)c2CN1C(=O)N[C@H](CCCCO)c1ccccc1 [IV-291, (R)—N-(5-Hydroxy-1-phenylpentyl)-6,6-dimethyl-3-[1-(trimethylsilyl)cyclobutanecarboxamido]-4,6-dihydropyrrolo[3,4-c]pyrazole-5(1H)-carboxamide]",≤ 500,≥ 500,≥ 1000
"CC(C)(O)C[C@@H](NC(=O)N1Cc2c(NC(=O)C3([Si](C)(C)C)CCC3)n[nH]c2C1(C)C)c1ccccc1 [IV-299, (R)—N-(3-Hydroxy-3-methyl-1-phenylbutyl)-6,6-dimethyl-3-[1-(trimethylsilyl)cyclobutanecarboxamido]-4,6-dihydropyrrolo[3,4-c]pyrazole-5(1H)-carboxamide]",≤ 500,≥ 500,≥ 1000
"CC1(C)c2[nH]nc(NC(=O)C3([Si](C)(C)C)CCC3)c2CN1C(=O)NCCO [IV-438, N-(2-Hydroxyethyl)-6,6-dimethyl-3-[1-(trimethylsilyl)cyclobutanecarboxamido]-4,6-dihydropyrrolo[3,4-c]pyrazole-5(1H)-carboxamide]",≤ 500,≥ 500,≥ 1000
"CC1(C)c2[nH]nc(NC(=O)C3([Si](C)(C)C)CCC3)c2CN1C(=O)NCC(O)c1ccccc1 (stereo not drawn) [IV-450, N-(2-Hydroxy-2-phenylethyl)-6,6-dimethyl-3-[1-(trimethylsilyl)cyclobutanecarboxamido]-4,6-dihydropyrrolo[3,4-c]pyrazole-5(1H)-carboxamide]",≤ 500,≥ 500,≥ 1000
"CC(C)[C@@H](CO)NC(=O)N1Cc2c(NC(=O)C3([Si](C)(C)C)CCC3)n[nH]c2C1(C)C [IV-475, (S)—N-(1-Hydroxy-3-methylbutan-2-yl)-6,6-dimethyl-3-[1-(trimethylsilyl)cyclobutanecarboxamido]-4,6-dihydropyrrolo[3,4-c]pyrazole-5(1H)-carboxamide]",≤ 500,≥ 500,≥ 1000
"CC1(C)c2[nH]nc(NC(=O)C3([Si](C)(C)C)CCC3)c2CN1C(=O)N[C@H](CO)C1CCCCC1 [IV-495, (S)—N-(1-Cyclohexyl-2-hydroxyethyl)-6,6-dimethyl-3-[1-(trimethylsilyl)cyclobutanecarboxamido]-4,6-dihydropyrrolo[3,4-c]pyrazole-5(1H)-carboxamide]",≤ 500,≥ 500,≥ 1000
"CC1(C)c2[nH]nc(NC(=O)C3([Si](C)(C)C)CCC3)c2CN1C(=O)C(CO)c1ccccc1 (stereo not drawn) [IV-632, N-[5-(3-Hydroxy-2-phenylpropanoyl)-6,6-dimethyl-1,4,5,6-tetrahydropyrrolo[3,4-c]pyrazol-3-yl]-1-(trimethylsilyl)cyclobutanecarboxamide]",≤ 500,≥ 500,≥ 1000
"CC1(C)c2[nH]nc(NC(=O)C3([Si](C)(C)C)CCC3)c2CN1C(=O)NC(c1ccccc1)C1(CO)CCC1 (stereo not drawn) [IV-718, N-{[1-(Hydroxymethyl)cyclobutyl](phenyl)methyl}-6,6-dimethyl-3-[1-(trimethylsilyl)cyclobutanecarboxamido]-4,6-dihydropyrrolo[3,4-c]pyrazole-5(1H)-carboxamide]",≤ 500,≥ 500,≥ 1000
"CC1(C)c2[nH]nc(NC(=O)C3([Si](C)(C)C)CCC3)c2CN1C(=O)N[C@H](CC1(O)CC1)c1ccccc1 [IV-743, (R)—N-[2-(1-Hydroxycyclopropyl)-1-phenylethyl]-6,6-dimethyl-3-[1-(trimethylsilyl)cyclobutanecarboxamido]-4,6-dihydropyrrolo[3,4-c]pyrazole-5(1H)-carboxamide]",≤ 500,≥ 500,≥ 1000
"CC(C)(O)C[C@@H](NC(=O)N1Cc2c(NC(=O)C3([Si](C)(C)C)CCC3)n[nH]c2C1(C)C)c1cccc(F)c1 [IV-911, (R)—N-[1-(3-Fluorophenyl)-3-hydroxy-3-methylbutyl]-6,6-dimethyl-3-[1-(trimethylsilyl)cyclobutanecarboxamido]-4,6-dihydropyrrolo[3,4-c]pyrazole-5(1H)-carboxamide]",≤ 500,≥ 500,≥ 1000
"CC(C)(CO)C(NC(=O)N1Cc2c(NC(=O)C3([Si](C)(C)C)CCC3)n[nH]c2C1(C)C)c1ccc(F)cc1 (stereo not drawn) [IV-946, N-[1-(4-Fluorophenyl)-3-hydroxy-2,2-dimethylpropyl]-6,6-dimethyl-3-[1-(trimethylsilyl)cyclobutanecarboxamido]-4,6-dihydropyrrolo[3,4-c]pyrazole-5(1H)-carboxamide]",≤ 500,≥ 500,≥ 1000
"CC1(C)c2[nH]nc(NC(=O)C3([Si](C)(C)C)CCC3)c2CN1C(=O)[C@H](OC(F)(F)F)c1ccccc1 [IV-1184, (R)—N-{6,6-Dimethyl-5-[2-phenyl-2-(trifluoromethoxy)acetyl]-1,4,5,6-tetrahydropyrrolo[3,4-c]pyrazol-3-yl}-1-(trimethylsilyl)cyclobutanecarboxamide]",≤ 500,≥ 500,≥ 1000
"CC(C)O[C@@H](C(=O)N1Cc2c(NC(=O)C3([Si](C)(C)C)CCC3)n[nH]c2C1(C)C)c1ccccc1 [IV-1204, (R)—N-[5-(2-Isopropoxy-2-phenylacetyl)-6,6-dimethyl-1,4,5,6-tetrahydropyrrolo[3,4-c]pyrazol-3-yl]-1-(trimethylsilyl)cyclobutanecarboxamide]",≤ 500,≥ 500,≥ 1000
